From patent publication US8263598B2, “Substituted sulfonamide compounds” (Gruenenthal GmbH, priority 2008, dated 2012)

Key:
[1] = target: T1, human B1R receptor (hB1R) (Homo sapiens, UniProt P46663); experiment: FLIPR Ca2+ assay on human bradykinin 1 receptor (CHO K1 hB1R cells); type: cell-based; details: test substance 10 μM; CHO K1 cells with human B1R gene; agonist Lys-Des-Arg9-bradykinin 0.5 nM; compared to maximum achievable inhibition
T1 construct: host or cells: CHO K1 cells
T1 sequence (P46663 1-353): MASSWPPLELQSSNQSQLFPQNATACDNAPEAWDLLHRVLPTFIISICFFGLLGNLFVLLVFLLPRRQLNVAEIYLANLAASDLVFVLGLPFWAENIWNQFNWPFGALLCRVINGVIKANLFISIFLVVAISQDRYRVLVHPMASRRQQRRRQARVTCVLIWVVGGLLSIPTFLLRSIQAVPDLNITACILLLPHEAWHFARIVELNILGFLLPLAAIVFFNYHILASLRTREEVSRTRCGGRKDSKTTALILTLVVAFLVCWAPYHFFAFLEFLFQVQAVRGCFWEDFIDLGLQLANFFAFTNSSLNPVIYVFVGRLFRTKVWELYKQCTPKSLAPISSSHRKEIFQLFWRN
How it was run: (§1)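 Values are percent inhibition of agonist-evoked Ca²⁺ influx, measured by Fluo-4 fluorescence peak in FLIPR relative to maximum achievable inhibition. Compound at 10 μM was preincubated 10 min on B1R-transfected CHO K1 cells before challenge with 0.5 nM Lys-Des-Arg9-bradykinin (human) or 100 nM Des-Arg9-bradykinin (rat).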

[2] = target: T2, B1R receptor of rats (rB1R) (Rattus norvegicus, UniProt P97583); experiment: FLIPR Ca2+ assay on rat bradykinin 1 receptor (CHO K1 rB1R cells); type: cell-based; details: test substance 10 μM; CHO K1 cells with B1R gene of rats; agonist Des-Arg9-bradykinin 100 nM; compared to maximum achievable inhibition
T2 construct: host or cells: CHO K1 cells
T2 sequence (P97583 1-337): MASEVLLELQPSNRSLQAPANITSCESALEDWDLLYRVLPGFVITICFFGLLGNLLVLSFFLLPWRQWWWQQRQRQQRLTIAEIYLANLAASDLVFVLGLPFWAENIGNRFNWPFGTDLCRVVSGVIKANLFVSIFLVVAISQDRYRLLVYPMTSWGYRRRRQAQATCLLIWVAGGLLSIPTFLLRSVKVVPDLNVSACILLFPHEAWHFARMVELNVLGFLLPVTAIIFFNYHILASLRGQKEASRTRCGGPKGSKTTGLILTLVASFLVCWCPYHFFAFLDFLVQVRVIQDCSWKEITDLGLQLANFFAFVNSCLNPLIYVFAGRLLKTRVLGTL
How it was run: as §1

inhibition at 10 µM [1] [%]	inhibition at 10 µM [2] [%]	SMILES
99	102	Cc1cc(C)c(S(=O)(=O)N(C)CCOCC(=O)N2CCn3cccc3C2c2cccs2)c(C)c1 (centres unmarked) [Example 74, N,2,4,6-tetramethyl-N-(2-(2-oxo-2-(1-(thiophen-2-yl)-3,4-dihydropyrrolo[1,2-a]pyrazin-2(1H)-yl)ethoxy)ethyl)benzenesulfonamide]
104	103	CCCCC1c2ccc(CN(C)C)n2CCN1C(=O)COCCN(C)S(=O)(=O)c1c(C)cc(OC)cc1C (centres unmarked) [Example 134, N-(2-(2-(1-butyl-6-((dimethylamino)methyl)-3,4-dihydropyrrolo[1,2-a]pyrazin-2(1H)-yl)-2-oxoethoxy)ethyl)-4-methoxy-N,2,6-trimethylbenzenesulfonamide]
101	101	COc1cc(C)c(S(=O)(=O)N(C)CCOCC(=O)N2CCn3c(CN4CCCC4)ccc3C2c2ccccc2)c(C)c1 (centres unmarked) [Example 15, 4-methoxy-N,2,6-trimethyl-N-(2-(2-oxo-2-(1-phenyl-6-(pyrrolidin-1-ylmethyl)-3,4-dihydropyrrolo[1,2-a]pyrazin-2(1H)-yl)ethoxy)ethyl)benzenesulfonamide]
104	102	COc1cc(C)c(S(=O)(=O)N(CCOCC(=O)N2CCn3c(CN4CCOCC4)ccc3C2c2ccccc2)CC(C)C)c(C)c1C (centres unmarked) [Example 94, N-isobutyl-4-methoxy-2,3,6-trimethyl-N-(2-(2-(6-(morpholinomethyl)-1-phenyl-3,4-dihydropyrrolo[1,2-a]pyrazin-2(1H)-yl)-2-oxoethoxy)ethyl)benzene-sulfonamide]
